# Results reported in patent US20150164916A1, “ROFLUMILAST COMPOSITIONS FOR THE TREATMENT OF COPD” (Forest Laboratories Holdings Ltd., priority 2012, published 2015).
# Key:
# Type in all cases: cell-based, human
# [1] = tested on: PI3Kδ; test: Real time RT-PCR of PI3Kδ expression in CSE-stimulated neutrophils from COPD patients; details: RNO 1 nM and 1 μM, DEX 1 μM, RNO 1 nM plus DEX 1 μM, NAC 1 mM, CSE 5%
# Description: (§1) Neutrophils and monocytes were isolated from peripheral venous blood by standard laboratory procedures. In brief, peripheral venous blood was mixed with dextran 500 at 3% (in 0.9% saline) in a proportion of 2:1. This mixture was incubated at room temperature for 30 min until erythrocytes were sedimented. The upper phase was carefully collected and added on Ficoll-Paque Histopaque 1077 (Amershan Pharmacia Biotech, Barcelona, Spain) density gradient in a proportion of 3:1. The two phases generated were centrifuged at 150 g, 4° C. for 30 min. […]
# (§2) CSE was prepared as previously outlined (Milara et al.; Ortiz et al.). […] The quality of the prepared CSE solution was assessed based on the absorbance at 320 nm, which is the specific absorption wavelength of peroxynitrite. Stock solutions with an absorbance value of 3.0±0.1 were used. […]
# (§3) Total RNA was obtained from isolated neutrophils under basal conditions or after different drug and stimulation periods defined above by using TriPure® Isolation Reagent (Roche, Indianapolis, USA). […] Relative quantification of these transcripts was determined with the 2^−ΔΔCt method using glyceraldehyde phosphate dehydrogenase (GAPDH) as endogenous control (Applied Biosystems; 4352339E) and normalized to control group as previously described (Milara et al., 2009).
# (§4) Then, mRNA was isolated and quantified for different genes.
# [2] = tested on: HDAC2; test: Real time RT-PCR of HDAC2 expression in CSE-stimulated neutrophils from COPD patients; details: RNO 1 nM and 1 μM, DEX 1 μM, RNO 1 nM plus DEX 1 μM, NAC 1 mM, CSE 5%
# Description: as §1, §2, §3, §4
# [3] = tested on: MIF; test: Real time RT-PCR of MIF mRNA in CSE-stimulated neutrophils from COPD patients; details: RNO 1 nM and 1 μM, DEX 1 μM, RNO 1 nM plus DEX 1 μM, NAC 1 mM for 1 h, then CSE 5% 6 h
# Description: as §1, §2, §3, §4
# [4] = tested on: GCβ; test: Real time RT-PCR of GCβ mRNA in CSE-stimulated neutrophils from COPD patients; details: RNO 1 nM and 1 μM, DEX 1 μM, RNO 1 nM plus DEX 1 μM, NAC 1 mM, CSE 5%
# Description: as §1, §2, §3, §4
structure (smiles),measurement,setting,value
"O=C(Nc1c(Cl)c[n+]([O-])cc1Cl)c1ccc(OC(F)F)c(OCC2CC2)c1 [RNO, roflumilast N-oxide]",effect on CSE-induced PI3Kδ upregulation,[1],inhibited
same,effect on CSE-induced HDAC2 downregulation,[2],inhibited
same,effect on CSE-induced increase of MIF mRNA expression,[3],reversed the effect of CSE
same,effect on CSE-induced GCβ upregulation,[4],inhibited
